Key:
Assay in all cases: DSF 100 kinase selectivity screen;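 further: compound tested at 20 µM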
Format in all cases: binding
[1] = biological target: T1, ~100 representative kinases (Homo sapiens, UniProt Q6PHR2); settings: Protein ULK3; DSF; average of three replicates
T1 construct: Recombinant protein kinase domains with a concentration of 2 μM
T1 sequence (Q6PHR2 1-472): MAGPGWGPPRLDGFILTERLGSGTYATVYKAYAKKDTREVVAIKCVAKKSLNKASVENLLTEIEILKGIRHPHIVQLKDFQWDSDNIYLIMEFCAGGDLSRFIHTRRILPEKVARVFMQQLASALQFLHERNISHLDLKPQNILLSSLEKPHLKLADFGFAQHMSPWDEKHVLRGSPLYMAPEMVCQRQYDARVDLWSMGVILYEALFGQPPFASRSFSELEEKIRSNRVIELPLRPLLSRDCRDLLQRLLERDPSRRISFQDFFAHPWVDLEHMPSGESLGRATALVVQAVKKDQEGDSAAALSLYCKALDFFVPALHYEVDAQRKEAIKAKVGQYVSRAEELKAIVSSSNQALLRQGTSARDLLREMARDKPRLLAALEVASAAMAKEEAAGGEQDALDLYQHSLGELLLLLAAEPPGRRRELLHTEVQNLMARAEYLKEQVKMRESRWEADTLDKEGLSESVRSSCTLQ
Method: (§1) Recombinant protein kinase domains with a concentration of 2 μM were mixed with a 20 μM compound solution in dimethyl sulfoxide (DMSO), 20 mM Hepes (pH 7.5), and 500 mM NaCl. SYPRO Orange (5000×, Invitrogen) was added as a fluorescence probe (1μl/ml). Subsequently, temperature-dependent protein unfolding profiles were measured using the QuantStudio 5 realtime PCR machine (Thermo Fisher Scientific, Waltham, MA, USA). […] The temperature was raised with a step rate of 3°C/min. […] Differences in melting temperature are given as ΔTm values in degrees Celsius. […]

[2] = biological target: T2, ~100 representative kinases (Homo sapiens, UniProt Q96SB4); settings: Protein SRPK1; DSF; average of three replicates
T2 construct: Recombinant protein kinase domains with a concentration of 2 μM
Method: as §1

[3] = biological target: T3, ~100 representative kinases (Homo sapiens, UniProt P52564); settings: protein MAP2K6; average of three replicates
T3 construct: Recombinant protein kinase domains with a concentration of 2 μM
T3 sequence (P52564 1-334): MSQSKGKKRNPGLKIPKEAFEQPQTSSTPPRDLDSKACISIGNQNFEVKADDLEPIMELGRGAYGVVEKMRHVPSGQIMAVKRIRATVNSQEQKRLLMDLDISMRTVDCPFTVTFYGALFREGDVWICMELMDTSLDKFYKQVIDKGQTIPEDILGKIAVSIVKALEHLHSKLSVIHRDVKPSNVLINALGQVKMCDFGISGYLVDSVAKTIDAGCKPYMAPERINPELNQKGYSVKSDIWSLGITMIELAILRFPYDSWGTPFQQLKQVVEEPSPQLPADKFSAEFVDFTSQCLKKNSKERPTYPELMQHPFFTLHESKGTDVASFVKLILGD
Method: as §1

[4] = biological target: T4, ~100 representative kinases (Homo sapiens, UniProt P45984); settings: protein MAPK9; average of three replicates
T4 construct: Recombinant protein kinase domains with a concentration of 2 μM
Method: as §1

[5] = biological target: T5, ~100 representative kinases (Homo sapiens, UniProt P54753); settings: Protein EPHB3A; average of three replicates
T5 construct: Recombinant protein kinase domains with a concentration of 2 μM
T5 sequence (P54753 34-998): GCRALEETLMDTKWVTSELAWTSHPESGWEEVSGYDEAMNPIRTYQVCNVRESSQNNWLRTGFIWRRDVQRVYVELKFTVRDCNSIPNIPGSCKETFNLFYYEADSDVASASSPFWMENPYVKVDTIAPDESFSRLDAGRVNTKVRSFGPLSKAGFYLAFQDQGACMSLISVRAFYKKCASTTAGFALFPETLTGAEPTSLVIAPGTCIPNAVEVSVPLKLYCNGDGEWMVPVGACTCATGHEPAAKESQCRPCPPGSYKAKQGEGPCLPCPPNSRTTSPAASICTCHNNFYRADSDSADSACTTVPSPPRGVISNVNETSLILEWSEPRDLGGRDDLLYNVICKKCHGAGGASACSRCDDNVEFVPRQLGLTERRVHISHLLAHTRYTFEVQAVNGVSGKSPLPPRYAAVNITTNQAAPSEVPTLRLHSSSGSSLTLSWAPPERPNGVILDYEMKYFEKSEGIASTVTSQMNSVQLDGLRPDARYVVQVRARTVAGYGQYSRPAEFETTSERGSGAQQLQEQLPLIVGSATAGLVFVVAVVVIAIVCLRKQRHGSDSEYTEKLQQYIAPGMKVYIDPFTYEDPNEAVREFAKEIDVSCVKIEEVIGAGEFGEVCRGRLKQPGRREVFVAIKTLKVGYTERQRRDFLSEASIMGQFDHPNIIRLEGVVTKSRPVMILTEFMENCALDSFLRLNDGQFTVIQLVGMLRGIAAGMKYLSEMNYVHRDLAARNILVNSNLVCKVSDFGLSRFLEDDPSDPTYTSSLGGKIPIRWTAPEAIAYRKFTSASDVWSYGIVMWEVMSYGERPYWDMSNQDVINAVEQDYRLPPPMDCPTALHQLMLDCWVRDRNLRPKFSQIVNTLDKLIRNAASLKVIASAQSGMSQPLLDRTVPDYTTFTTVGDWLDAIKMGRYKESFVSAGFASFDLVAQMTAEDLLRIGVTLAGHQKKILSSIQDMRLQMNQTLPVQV
Method: as §1

T4 sequence (P45984 whole entry, the tested form may be a part): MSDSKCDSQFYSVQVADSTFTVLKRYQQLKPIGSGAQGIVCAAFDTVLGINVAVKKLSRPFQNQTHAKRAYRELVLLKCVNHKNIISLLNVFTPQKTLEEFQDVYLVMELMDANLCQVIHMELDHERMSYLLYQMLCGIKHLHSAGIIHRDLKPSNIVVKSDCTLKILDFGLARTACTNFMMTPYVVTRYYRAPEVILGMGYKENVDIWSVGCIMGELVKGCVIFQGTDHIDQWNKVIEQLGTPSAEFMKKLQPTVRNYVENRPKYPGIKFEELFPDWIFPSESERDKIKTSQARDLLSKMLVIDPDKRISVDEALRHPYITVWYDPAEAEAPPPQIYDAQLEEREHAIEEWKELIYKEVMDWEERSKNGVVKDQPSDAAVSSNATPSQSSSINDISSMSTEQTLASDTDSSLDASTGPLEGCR
T2 sequence (Q96SB4 whole entry, the tested form may be a part): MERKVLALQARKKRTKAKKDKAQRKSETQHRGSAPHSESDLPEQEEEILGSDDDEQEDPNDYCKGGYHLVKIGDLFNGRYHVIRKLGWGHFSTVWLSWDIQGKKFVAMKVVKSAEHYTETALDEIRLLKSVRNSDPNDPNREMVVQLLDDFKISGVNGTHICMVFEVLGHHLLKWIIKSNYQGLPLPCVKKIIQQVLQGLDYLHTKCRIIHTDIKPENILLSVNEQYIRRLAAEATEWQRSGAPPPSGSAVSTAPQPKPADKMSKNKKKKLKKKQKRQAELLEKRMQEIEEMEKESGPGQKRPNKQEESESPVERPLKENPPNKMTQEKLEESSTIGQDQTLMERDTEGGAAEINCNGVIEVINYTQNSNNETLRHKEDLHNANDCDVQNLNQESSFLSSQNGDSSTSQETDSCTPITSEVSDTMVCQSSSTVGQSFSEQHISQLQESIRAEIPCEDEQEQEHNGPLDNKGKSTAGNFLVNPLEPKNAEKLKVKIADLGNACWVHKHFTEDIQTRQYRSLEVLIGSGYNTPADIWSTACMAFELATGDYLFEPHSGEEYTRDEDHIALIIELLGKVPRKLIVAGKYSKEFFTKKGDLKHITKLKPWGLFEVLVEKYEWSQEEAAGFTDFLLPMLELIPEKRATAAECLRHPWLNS

Row | Structure (SMILES) | dTm [1] | dTm [2] | dTm [3] | dTm [4] | dTm [5]
1 | Cc1cc(NC(=O)C2(C(=O)Nc3cccc(-c4c[nH]c5ncnc(N6CCOCC6)c45)c3)CC2)ccc1F [Compound 20] | 10.21 K | 13.77 K | 3.64 K | 6.61 K | 3.99 K
2 | CCNc1nc(Nc2cc(F)c(C(=O)N3CCOCC3)cc2OC)ncc1C(F)(F)F [GNE-7915] | 1.79 K | 0.15 K | 0.65 K | 0.58 K | 0.08 K
3 | CC(C)(C)c1cccc(NC(=O)C2(C(=O)Nc3cccc(-c4c[nH]c5ncnc(N6CCOCC6)c45)c3)CC2)c1 [Compound 22] | 11.44 K | 9.79 K | 1.77 K | 1.21 K | 0.59 K
4 | CN[C@@H]1C[C@H]2O[C@@](C)([C@@H]1OC)n1c3ccccc3c3c4c(c5c6ccccc6n2c5c31)C(=O)NC4 [Staurosporine] | – | 7.17 K | 12.80 K | – | 7.02 K
5 | O=C(Nc1cccc(-c2c[nH]c3ncnc(N4CCOCC4)c23)c1)C1(C(=O)Nc2ccc(F)cc2F)CC1 [Compound 23] | 8.50 K | 6.35 K | 1.78 K | 2.02 K | 1.84 K
6 | CC(=O)N1CCN(c2nc(Cl)nc3[nH]cc(-c4cccc(NC(=O)Nc5cc(C(C)(C)C)nn5-c5ccc(C)cc5)c4)c23)CC1 [Compound 31] | 0.92 K | 7.78 K | 0.27 K | 5.47 K | -1.56 K
7 | O=C(Nc1cc(F)cc(Br)c1)C1(C(=O)Nc2cccc(-c3c[nH]c4ncnc(N5CCOCC5)c34)c2)CC1 [Compound 27] | 7.46 K | -0.47 K | 2.66 K | 4.80 K | -2.17 K
8 | Cc1ccc(C(=O)Nc2ccc(CN3CCN(C)CC3)c(C(F)(F)F)c2)cc1C#Cc1cnc2[nH]ncc2c1 [GZD-824, reference compound] | 9.35 K | 13.60 K | 0.96 K | 4.93 K | 15.76 K
9 | O=C(Nc1ccccc1)C1(C(=O)Nc2cccc(-c3c[nH]c4ncnc(N5CCOCC5)c34)c2)CC1 [Compound 12] | 7.80 K | 7.66 K | 2.08 K | 2.81 K | 3.99 K
10 | CNC(=O)c1cc(Oc2ccc(NC(=O)Nc3cc(C(C)(C)C)nn3-c3ccc4ncccc4c3)c(F)c2)ccn1 [Rebastinib, reference compound] | 3.80 K | 14.66 K | 0.26 K | 9.78 K | -2.84 K
11 | COc1cc2c(Oc3ccc(NC(=O)C4(C(=O)Nc5ccc(F)cc5)CC4)cc3F)ccnc2cc1OCCCN1CCOCC1 [Foretinib, reference compound] | 14.26 K | 7.77 K | 2.25 K | 2.84 K | 13.52 K
12 | Cc1ccc(NC(=O)C2(C(=O)Nc3cccc(-c4c[nH]c5ncnc(N6CCOCC6)c45)c3)CC2)cc1 [Compound 14] | 7.72 K | 7.30 K | 1.56 K | 2.56 K | 3.71 K
13 | Cc1ccc(C(=O)Nc2ccc(CN3CCN(C)CC3)c(C(F)(F)F)c2)cc1C#Cc1cnc2cccnn12 [Ponatinib, reference compound] | – | – | – | – | 13.49 K
14 | O=C(Nc1ccc(Cl)cc1)C1(C(=O)Nc2cccc(-c3c[nH]c4ncnc(N5CCOCC5)c34)c2)CC1 [Compound 13] | 9.91 K | 12.04 K | 2.65 K | 3.96 K | 5.32 K
15 | Cc1ccc(-n2nc(C(C)(C)C)cc2NC(=O)Nc2cccc(-c3c[nH]c4ncnc(N5CCOCC5)c34)c2)cc1 [Compound 29] | 7.43 K | 11.63 K | 2.48 K | -1.39 K | -2.20 K
16 | O=C(Nc1cccc(-c2c[nH]c3ncnc(N4CCOCC4)c23)c1)C1(C(=O)Nc2ccc(F)c(Br)c2)CC1 [Compound 19] | 5.66 K | 7.58 K | 3.38 K | 5.82 K | 1.12 K
17 | O=C(Nc1cccc(-c2c[nH]c3ncnc(N4CCOCC4)c23)c1)C1(C(=O)Nc2ccc(F)c(Cl)c2)CC1 [Compound 18] | 9.54 K | 12.10 K | 2.96 K | 5.44 K | 2.57 K
18 | COc1cc(S(C)(=O)=O)ccc1Nc1nc(N(C)C)c2c(Cl)c[nH]c2n1 [Compound 37] | 1.01 K | 0.39 K | 5.52 K | 0.96 K | -1.89 K
19 | O=C(Nc1cccc(-c2c[nH]c3ncnc(N4CCOCC4)c23)c1)C1(C(=O)Nc2cc(Br)c(F)cc2F)CC1 [Compound 25] | 9.25 K | 4.56 K | 3.34 K | 4.88 K | -0.88 K
20 | Cn1cc(-c2c[nH]c3ncnc(N4CCOCC4)c23)cc1C#N [PFE-360] | 5.19 K | -0.23 K | 1.09 K | 0.17 K | 0.07 K
21 | O=C(Nc1cccc(-c2c[nH]c3ncnc(N4CCOCC4)c23)c1)c1cccn(-c2ccc(F)cc2)c1=O [Compound 4] | 8.63 K | 9.86 K | 2.38 K | 5.57 K | 3.66 K
22 | Cc1ccc(C(=O)Nc2ccc(CN3CCN(C)CC3)c(C(F)(F)F)c2)cc1C#Cc1c[nH]c2ncnc(N3CCOCC3)c12 [Compound 1] | 9.22 K | 15.50 K | 3.80 K | 5.51 K | 4.94 K
23 | O=C(Nc1ccc(F)cc1)C1(C(=O)Nc2cccc(-c3c[nH]c4ncnc(N5CCOCC5)c34)c2)CC1 [Compound 2] | 7.39 K | 10.56 K | 2.20 K | 2.87 K | 2.82 K
24 | Cc1cc(NC(=O)C2(C(=O)Nc3ccc(F)cc3)CC2)cc(-c2c[nH]c3ncnc(N4CCOCC4)c23)c1 [Compound 6] | 3.31 K | 7.72 K | 1.56 K | 2.51 K | 0.34 K
25 | O=C(Nc1cccc(-c2c[nH]c3ncnc(N4CCOCC4)c23)c1)C1(C(=O)Nc2ccc(F)c(Br)c2F)CC1 [Compound 26] | 7.33 K | 4.06 K | 2.03 K | 4.90 K | -0.51 K
